Here are results for three compounds from patent US8420606B2, “Method of utilizing physiological activity of rare saccharide and composition containing rare saccharide” (priority 2002, dated 2013).

“Also recorded” adds a separate entry of the source.

For assay [1], the system named is Hepatic cancer cells (HepG2). Nature of the assay: proliferation of cultured cells, MTT method, HepG2. The class given is cell-based, human. Conditions: saccharide 50 mM, 4 to 5 days. Here is the method: Various kinds of rare saccharides were added at a concentration of 50 mM to culture media under the following conditions, and an influence of each rare saccharide upon the progress of proliferation of cancer cell strains was examined.
(1) Target cells to which the rare saccharides were added: Hepatic cancer cells (HepG2), uterine cancer cells (He1a), ovary cancer cells (OVCAR3), and skin keratinocyte (HaCaT) were selected as target cells to which the rare saccharides were added.
(2) Rare saccharides added: In addition to D-allose, glucose and D-altros as rare saccharides belonging to ketose were added, as other comparative saccharides, to the addition target cells. Also, D-fructose was employed as a control.
(3) Experiment method: A number 3,000-5,000 of addition target cells per type were inoculated into a multi-well plastic dish (hereinafter referred to as a “well”) having 96 wells, and were cultured for 4 to 5 days in a culture medium supplemented with 5 to 10% of Fetal Bovine Serum (FBS) depending on the cell types. D-Allose, D-glucose and D-altros were each added at concentration of 50 mM to the addition target cells per type. Similarly, D-fructose as a control was added at a concentration of 50 mM. To examine the influence upon the cell proliferation, the cell number was measured in units of 24 hours by using the MTT method described below.
(1) Preparation of reagents: A predetermined amount of MTT (tetrazolium salt) was dissolved in PBS(−) sterilized in an autoclave to obtain an MTT solution through filtering and sterilization. An acidic solution was prepared by adding 50 mL of N,N-dimethylformaldehyde and water to a predetermined amount of (20 g) of SDS, thereby obtaining a 100 mL of solution. […]
(2) Test method: The cells were treated with TEP to prepare a cell suspension liquid. […] The absorbance of the liquid was measured at a wavelength of 570 to 600 nm by using a spectrophotometer. After dissolving the colored substance (formazan) in the acid solution, the absorbance can be measured directly by a plate reader.

In assay [2] the test system is Daudi. Put plainly: blood-system cancer cell strain proliferation, Coulter Counter, Daudi. The assay is classed as cell-based. Conditions: for Daudi cell number relative to glucose: seventh day, glucose = 100%; for Daudi-cell proliferation inhibitory effect: 0.05-50 mM, 7 days, D-glucose control. How it is done:
(§1) (2) Method: Total 6 kinds of cell strains, i.e., Myeloid (HL-60, THP-1, KG-1), T-cell (MT-2), and B-Cell (Daudi, KS-1), and 3 kinds of rare saccharides (i.e., D-psicose, D-altrose, and D-allose), were employed. The culture medium and the cells were prepared to be 1 mL in total and 1×10^5 in number, respectively. Then, the cell number at each of fourth day and seventh day was counted by using a Coulter Counter. Each rare saccharide was added at concentrations of 0.05, 0.5, 5 and 50 mM, while D-glucose was used as a control.
(§2) Culture Medium: FBS 10% added RPMI1460
(§3) Cultivation Conditions: 37° C., 5% CO2
(§4) Cultivation Vessel: FALCON, MULTIWELL, 12 wells
(§5) Number of Cultivation Days: 7 days
(§6) Saccharides Concentration: 0.05, 0.5, 5, 50 mM

Assay [3] has as its system HL-60. Nature of the assay: blood-system cancer cell strain proliferation, Coulter Counter, HL60. The assay is classed as cell-based. Conditions: for HL60 cell number relative to glucose: seventh day, glucose = 100%; for HL60 proliferation inhibitory effect: 0.05-50 mM, 7 days, D-glucose control. Here is the method: as §1, §2, §3, §4, §5, §6
Assay [4] relates to CINC-1 mRNA. Put plainly: rat renal ischemia-reperfusion, northern blotting. The assay is classed as in vivo. Conditions: 400 mg/kg into the vein 30 minutes before clamping, 45 minutes ischemia, reperfusion for 2 hours, preliminary. Here is the method:
Target . . . Male rat with weight of about 300 g. Experiment method . . . The renal ischemia model was prepared after putting the rat under anesthesia with Nembutal. Renal ischemia . . . After picking up the right kidney, the left renal blood vessel was clamped for 45 minutes. Drugs used . . . D-allose and D-psicose (400 mg/kg per drug) were administrated into the vein 30 minutes before clamping for renal ischemia. Measurement item . . . An influence of each drug upon appearance of a trouble factor, i.e., […] neutrophil chemoattractant (CINC)-1 mRNA, was measured (after reperfusion for 2 hours).

The test system of assay [5] is THP-1. Nature of the assay: blood-system cancer cell strain proliferation, Coulter Counter, THP1. The conditions noted are these: 0.05-50 mM, 7 days, D-glucose control. The assay is classed as cell-based. How it is done: as §1, §2, §3, §4, §5, §6
Assay [6] relates to livers of rats. Put plainly: rat liver ischemia-reperfusion, survival. The assay is classed as in vivo. The conditions noted are these: liver ischemia 90 minutes then reperfusion; D-allose 0.2 g/kg perfused before the ischemia; usually only 30%. Here is the method:
When a surgical operation for intestinal organs, such as the liver, is performed, a blood flow is always temporarily stopped. This brings the intestinal organs into the ischemia state. When blood is started to flow again after the surgery, active oxygen is produced in large amount from leukocyte at that time, which is considered as one of major causes bringing about the organic injury. The inventors conducted an experiment through the steps of bringing the livers of rats into the ischemia state for a relatively long time, i.e., 90 minutes, and then reperfusing blood to examine the survival rate of the rats after 3 months depending on application or non-application of the rare saccharide. While the survival rate is usually only 30%, it increased to about 70% by perfusing D-allose at 0.2 g/kg before the ischemia. […] This effect is considered to be one factor making D-allose effective in organ protection.

Assay [7] deals with rat intestinal tract. Nature of the assay: glucose absorption in reversed intestinal tract. The conditions noted are these: D-psicose at concentration comparable to that of glucose. How it is done: To clarify an influence of D-psicose upon the absorption of glucose, the influence of D-psicose upon the absorption of glucose was analyzed by using a rat intestinal tract. The absorption of glucose was analyzed by measuring concentrations outside and inside a mucous membrane of an intestinal tract by a quantitative manner based on the glucose oxidase method. How the absorption of glucose changed under coexistence of D-psicose and glucose was measured. Further, how a sugar absorption system changed was analyzed by using an intestinal tract of a rat administrated with D-psicose for a long time. […] After the lapse of a certain time, the solution on the serous membrane side was sampled and the glucose concentration was measured. By adding D-psicose at various concentrations, an influence of D-psicose upon transport of glucose from the mucous membrane side to the serous membrane side was studied.

For `O=C[C@H](O)[C@H](O)[C@H](O)[C@H](O)CO` [D-allose], the “proliferation of HepG2 cells (cell number over time)” value in assay [1] was “strongly inhibited proliferation; also recorded: has a proliferation inhibitory effect”. Besides, the “Daudi cell number relative to glucose” value in assay [2] (0.05 mM) was determined as 85.9%; in assay [2] (0.5 mM), 80.6%; in assay [2] (5 mM), 62.2%; in assay [2] (50 mM) it was 3.9%. The “Daudi-cell proliferation inhibitory effect” value in assay [2] is listed as “having the inhibitory effect”; in assay [2] (listed as allose) it was “showed an inhibitory effect”. Further, the “HL60 cell number relative to glucose” value in assay [3] (0.05 mM) was determined as 62.6%; in assay [3] (0.5 mM) it was 67.7%; in assay [3] (5 mM) it was 41.5%; in assay [3] (50 mM), 30.7%. Moreover, the “HL60 proliferation inhibitory effect” value is given as “having the inhibitory effect” in assay [3] and “showed an inhibitory effect” in assay [3] (listed as allose). The “appearance rate of CINC-1 mRNA” value in assay [4] was “suppressed”; in assay [4] (listed as allose) it was “reduced”. The “THP1 proliferation inhibitory effect” value in assay [5] is recorded as “showed a cell proliferation inhibitory effect at 59 mM”. Besides, the “survival rate of the rats after 3 months” value in assay [6] is given as “about 70%”.

As to `O=C[C@H](O)[C@@H](O)[C@H](O)[C@H](O)CO` [D-glucose, reference compound], the “proliferation of HepG2 cells (cell number over time)” value in assay [1] is given as “hardly found”.

In the case of `O=C(CO)[C@H](O)[C@H](O)[C@H](O)CO` [D-psicose], the “rise of glucose concentration on the serous membrane side” value in assay [7] is recorded as “significantly inhibited”. Besides, the “Daudi-cell proliferation inhibitory effect” value in assay [2] was “showed no effect”. Also, the “HL60 cell number relative to glucose” value in assay [3] (0.05 mM) worked out at 84.7%; in assay [3] (0.5 mM), 80.7%; in assay [3] (5 mM) it was 84.2%; in assay [3] (50 mM) it was 93.6%. Besides, the “HL60 proliferation inhibitory effect” value in assay [3] is reported as “showed an inhibitory effect”. The “appearance rate of CINC-1 mRNA” value in assay [4] is listed as “suppressed”; in assay [4] (listed as psicose) it was “reduced”.
